Data taken from PMC8764529, “Diversification by CofC and Control by CofD Govern Biosynthesis and Evolution of Coenzyme F420 and Its Derivative 3PG-F420” (mBio, 2022).

Columns and labels:
CofC (Archaeon GBE54128) = biological target: T1, CofC (Archaeon GBE54128) (archaeon BMS3Bbin15, UniProt A0A2H6JTR5); experiment: combined CofC/D assay, LC-MS; type: biochemical; settings: competitive mixture of 3-PG, 2-PL, PEP ([…] each), […] GTP, […] MgCl2, FO, Mjan-CofD, pH […]
T1 construct: N-terminal His6, E. coli; synthetic gene
T1 sequence (A0A2H6JTR5 1-207): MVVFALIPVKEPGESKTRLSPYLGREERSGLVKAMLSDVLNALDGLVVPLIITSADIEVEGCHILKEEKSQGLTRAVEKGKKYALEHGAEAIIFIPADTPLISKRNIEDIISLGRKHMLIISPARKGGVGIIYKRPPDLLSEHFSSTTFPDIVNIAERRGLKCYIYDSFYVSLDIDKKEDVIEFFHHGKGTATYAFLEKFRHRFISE

CofC (Ca. H. archaeon) = biological target: T2, CofC (Ca. H. archaeon) (Candidatus Hydrothermarchaeota archaeon, UniProt A0A497JEJ7); experiment: combined CofC/D assay, LC-MS; type: biochemical; settings: competitive mixture of 3-PG, 2-PL, PEP ([…] each), […] GTP, […] MgCl2, FO, Mjan-CofD, pH […]
T2 construct: N-terminal His6, E. coli; synthetic gene; full organism name only in supplement
T2 sequence (A0A497JEJ7 1-207): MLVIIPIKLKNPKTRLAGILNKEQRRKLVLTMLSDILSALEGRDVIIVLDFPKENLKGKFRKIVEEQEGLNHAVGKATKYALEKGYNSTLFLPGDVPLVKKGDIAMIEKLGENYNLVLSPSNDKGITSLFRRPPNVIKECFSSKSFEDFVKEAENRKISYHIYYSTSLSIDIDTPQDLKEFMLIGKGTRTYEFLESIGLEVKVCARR

[1] = biological target: T3, CofC (Thermomicrobium roseum) (Thermomicrobium roseum, UniProt B9L4T8); experiment: combined CofC/D assay, LC-MS; type: biochemical; settings: competitive mixture of 3-PG, 2-PL, PEP (0.5 mM each), 2 mM GTP, 2 mM MgCl2, FO, Mjan-CofD, pH 7.4
T3 construct: gene fbiD; N-terminal His6, E. coli
T3 sequence (B9L4T8 1-200): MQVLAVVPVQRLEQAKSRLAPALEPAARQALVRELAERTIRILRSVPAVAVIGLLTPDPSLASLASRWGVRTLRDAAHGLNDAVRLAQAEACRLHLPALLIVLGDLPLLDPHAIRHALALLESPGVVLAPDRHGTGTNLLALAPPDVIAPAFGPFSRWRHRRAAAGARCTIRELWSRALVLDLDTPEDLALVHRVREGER

Mmaz-CofC = biological target: T4, Mmaz-CofC (Methanosarcina mazei, UniProt Q8PU52); experiment: combined CofC/D assay, LC-MS; type: biochemical; settings: competitive mixture of 3-PG, 2-PL, PEP (0.5 mM each), 2 mM GTP, 2 mM MgCl2, FO, Mjan-CofD, pH 7.4
T4 construct: N-terminal His6, E. coli
T4 sequence (Q8PU52 1-208): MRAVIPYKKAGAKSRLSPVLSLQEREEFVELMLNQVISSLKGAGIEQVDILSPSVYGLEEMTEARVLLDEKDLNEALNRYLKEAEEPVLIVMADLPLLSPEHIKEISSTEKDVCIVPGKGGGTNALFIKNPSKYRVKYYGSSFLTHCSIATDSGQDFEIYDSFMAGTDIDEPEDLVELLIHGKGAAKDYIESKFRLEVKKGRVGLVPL

[2] = biological target: T5, CofC (Paracoccus denitrificans) (Paracoccus denitrificans, UniProt A1B131); experiment: combined CofC/D assay, LC-MS; type: biochemical; settings: competitive mixture of 3-PG, 2-PL, PEP (0.5 mM each), 2 mM GTP, 2 mM MgCl2, FO, Mjan-CofD, pH 7.4
T5 construct: gene Pden_1117; N-terminal His6, E. coli
T5 sequence (A1B131 1-216): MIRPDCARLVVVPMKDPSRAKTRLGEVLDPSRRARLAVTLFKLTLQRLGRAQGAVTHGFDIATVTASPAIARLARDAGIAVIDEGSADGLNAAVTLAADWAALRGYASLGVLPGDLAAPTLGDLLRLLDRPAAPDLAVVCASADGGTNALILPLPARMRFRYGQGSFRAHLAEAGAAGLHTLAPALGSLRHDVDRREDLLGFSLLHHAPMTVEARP

Msmeg-FbiD = biological target: T6, Msmeg-FbiD (Mycolicibacterium smegmatis, UniProt A0QUZ4); experiment: combined CofC/D assay, LC-MS; type: biochemical; settings: competitive mixture of 3-PG, 2-PL, PEP (0.5 mM each), 2 mM GTP, 2 mM MgCl2, FO, Mjan-CofD, pH 7.4
T6 construct: N-terminal His6, full length, E. coli (plasmid pMH10)
T6 sequence (A0QUZ4 whole entry): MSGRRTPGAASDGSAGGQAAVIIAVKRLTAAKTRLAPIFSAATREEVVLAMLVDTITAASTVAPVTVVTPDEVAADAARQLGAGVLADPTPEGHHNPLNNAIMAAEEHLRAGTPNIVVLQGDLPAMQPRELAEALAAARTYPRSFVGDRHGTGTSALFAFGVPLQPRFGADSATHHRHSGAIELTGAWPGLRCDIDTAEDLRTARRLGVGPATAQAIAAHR

[3] = biological target: T7, CofC (Oligotropha carboxidovorans) (Afipia carboxidovorans, UniProt B6JBS5); experiment: combined CofC/D assay, LC-MS; type: biochemical; settings: competitive mixture of 3-PG, 2-PL, PEP (0.5 mM each), 2 mM GTP, 2 mM MgCl2, FO, Mjan-CofD, pH 7.4
T7 construct: gene fbiD; N-terminal His6, E. coli
T7 sequence (B6JBS5 1-237): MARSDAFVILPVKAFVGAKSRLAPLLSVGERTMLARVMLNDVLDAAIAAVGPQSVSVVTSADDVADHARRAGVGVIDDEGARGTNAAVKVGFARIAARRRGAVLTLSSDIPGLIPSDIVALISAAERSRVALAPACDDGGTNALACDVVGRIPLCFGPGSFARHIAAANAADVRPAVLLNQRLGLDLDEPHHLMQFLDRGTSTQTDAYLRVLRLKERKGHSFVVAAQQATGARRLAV

CofC (Ca. E. factor) = biological target: T8, CofC (Ca. E. factor) (Candidatus Entotheonella factor, UniProt W4LIL2); experiment: combined CofC/D assay, LC-MS; type: biochemical; settings: competitive mixture of 3-PG, 2-PL, PEP (0.5 mM each), 2 mM GTP, 2 mM MgCl2, FO, Mjan-CofD, pH 7.4
T8 construct: gene ETSY1_21445; N-terminal His6, E. coli
T8 sequence (W4LIL2 entry or part of it): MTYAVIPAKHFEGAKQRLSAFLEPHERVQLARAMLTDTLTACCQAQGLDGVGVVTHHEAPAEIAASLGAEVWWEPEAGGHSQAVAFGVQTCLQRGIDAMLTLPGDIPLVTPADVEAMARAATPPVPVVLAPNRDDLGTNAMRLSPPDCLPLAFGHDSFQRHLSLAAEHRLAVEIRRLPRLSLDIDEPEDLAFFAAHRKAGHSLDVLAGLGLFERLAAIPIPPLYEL

Mrhiz-CofC = biological target: T9, Mrhiz-CofC (Mycetohabitans rhizoxinica, UniProt E5ASS2); experiment: combined CofC/D assay, LC-MS; type: biochemical; settings: competitive mixture of 3-PG, 2-PL, PEP (0.5 mM each), 2 mM GTP, 2 mM MgCl2, FO, cognate CofD, pH 7.4
T9 construct: N-terminal His6, full length, E. coli (plasmid pFS03)
T9 sequence (E5ASS2 6-221): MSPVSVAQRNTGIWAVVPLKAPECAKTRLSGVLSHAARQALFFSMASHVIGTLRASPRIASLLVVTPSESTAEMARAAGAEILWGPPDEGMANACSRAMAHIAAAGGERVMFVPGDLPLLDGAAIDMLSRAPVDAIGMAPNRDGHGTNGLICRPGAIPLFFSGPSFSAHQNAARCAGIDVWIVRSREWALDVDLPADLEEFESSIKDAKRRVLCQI

Mjan-CofD = biological target: T10, Mjan-CofD (Methanocaldococcus jannaschii, UniProt Q58653); experiment: combined CofC/D assay, LC-MS; type: biochemical; settings: coupled to CofC homologs forming LPPG, EPPG or GPPG; 2 mM GTP, 2 mM MgCl2, pH 7.4
T10 construct: N-terminal His6, E. coli
T10 sequence (Q58653 whole entry): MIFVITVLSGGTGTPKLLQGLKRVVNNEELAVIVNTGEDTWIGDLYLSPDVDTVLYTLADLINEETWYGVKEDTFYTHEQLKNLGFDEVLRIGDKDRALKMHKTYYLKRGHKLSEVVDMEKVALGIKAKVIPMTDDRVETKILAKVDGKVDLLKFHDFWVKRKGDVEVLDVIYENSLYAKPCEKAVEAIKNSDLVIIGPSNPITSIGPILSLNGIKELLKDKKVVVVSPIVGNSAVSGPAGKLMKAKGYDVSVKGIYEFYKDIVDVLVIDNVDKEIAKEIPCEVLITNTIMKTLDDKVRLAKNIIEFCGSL

CofC (nano-DSF) = biological target: T11, CofC (nano-DSF); experiment: nano-DSF; type: binding; settings: GPPG co-purified with the enzyme may be present
T11 construct: N-terminal His6, E. coli; Results place the test beside MycB3-CofC, Discussion names M. rhizoxinica

C[C@H](OP(=O)(O)O)C(=O)O [2-PL]
combined CofC/D assay, LC-MS (CofC (Archaeon GBE54128)): 2-PL was the best substrate of all three enzymes
combined CofC/D assay, LC-MS (CofC (Ca. H. archaeon)): 2-PL was the best substrate of all three enzymes
combined CofC/D assay, LC-MS [1]: For all CofC-related enzymes analyzed, 2-PL was used most efficiently
combined CofC/D assay, LC-MS (Mmaz-CofC): For all CofC-related enzymes analyzed, 2-PL was used most efficiently
combined CofC/D assay, LC-MS [2]: For all CofC-related enzymes analyzed, 2-PL was used most efficiently
combined CofC/D assay, LC-MS (Msmeg-FbiD): the M. smegmatis FbiD tested in this study preferred 2-PL as substrate
combined CofC/D assay, LC-MS [3]: For all CofC-related enzymes analyzed, 2-PL was used most efficiently
combined CofC/D assay, LC-MS (CofC (Ca. E. factor)): For all CofC-related enzymes analyzed, 2-PL was used most efficiently

O=C(O)[C@H](O)COP(=O)(O)O [3-PG]
combined CofC/D assay, LC-MS (CofC (Archaeon GBE54128)): all of those enzymes accepted 3-PG as substrates
combined CofC/D assay, LC-MS (CofC (Ca. H. archaeon)): all of those enzymes accepted 3-PG as substrates
combined CofC/D assay, LC-MS (Mrhiz-CofC): combined with their cognate CofD, the apparent substrate specificity shifted almost completely toward 3-PG

O=c1nc2n(C[C@H](O)[C@H](O)[C@H](O)CO)c3cc(O)ccc3cc-2c(=O)[nH]1 [FO, 7,8-didemethyl-8-hydroxy-5-deazariboflavin]
combined CofC/D assay, LC-MS (Mjan-CofD): Distinct derivatives of F420-0 were produced via biochemical reaction of purified CofC and CofD

Nc1nc2c(ncn2[C@@H]2O[C@H](COP(=O)(O)OP(=O)(O)OP(=O)(O)O)[C@@H](O)[C@H]2O)c(=O)[nH]1 [GTP]
Kd (CofC (nano-DSF)): < 20 µM
